Test results published in patent US20240408080A1, “PHARMACEUTICAL COMPOSITIONS OF CGRP INHIBITORS AND METHODS OF THEIR USE” (Pfizer Ireland Pharmaceuticals, priority 2021, published 2024).

Assays:
[1] = Phase 1 multiple ascending dose (MAD) study, intranasal, pharmacokinetics; assay type: in vivo, human; details: for AUC: human
Experimental: A Phase 1, single-center, randomized, double-blind, placebo-controlled, sequential multiple ascending dose (MAD) study with 2 alternate dosing arms was conducted. […] The MAD portion of the study consists of 4 cohorts, with a maximum dose of 20 mg administered once daily for up to 14 days in 3 cohorts, and 20 mg administered twice daily for up to 8 days in the fourth cohort.
In addition to the 4 MAD cohorts, there were 2 alternate dosing cohorts, each consisting of 1 day dosing. The first alternate dosing cohort assessed the effect of 2 sequential administrations of 20 mg (20 mg spray [100 μL of 200 mg/mL] in alternate nostrils); with a 30 minute interval between administrations. A 2nd alternate dosing cohort assessed the effect of 2 sequential administrations of 20 mg (20 mg spray [100 μL of 200 mg/mL] in alternate nostrils); with a nose blow and 5 minute interval between administrations.
The PK data were collected from subjects in Cohorts 1 to 4.

[2] = Phase 2/3 clinical trial BHV3500-201 (Study 201), safety, adverse events and liver function tests; assay type: in vivo, human
[3] = pH-solubility profile (physical and chemical properties of drug substance); assay type: physicochemical; details: mono-hydrochloride salt
[4] = pKa (physical and chemical properties of drug substance); assay type: physicochemical
[5] = system: acute treatment of migraine; test: Phase 2/3 clinical trial BHV3500-201 (Study 201), efficacy of intranasal zavegepant versus placebo; assay type: in vivo, human; details: for (2) Return to normal function at 2 hours posidose, Stratified Percentage Difference (Zavegepant − Placebo) / (7) Return to normal function at 60 minutes postdose, Stratified Percentage Difference (Zavegepant − Placebo) / (9) Return to normal function at 30 minutes postdose, Stratified Percentage Difference (Zavegepant − Placebo): subjects with functional disability at onset; for (9) Return to normal function at 30 minutes postdose, n/N (%): mITT subjects with functional disability at on-study migraine attack onset
[6] = Zavegepant 5 mg Group vs placebo, CMH weighting, mITT subjects
[7] = Zavegepant 5 mg Group vs placebo, CMH weighting
[8] = Zavegepant 5 mg Group, intranasal single dose, mITT subjects
[9] = Zavegepant 10 mg Group vs placebo, CMH weighting, mITT subjects
[10] = Zavegepant 10 mg Group vs placebo, CMH weighting
[11] = Zavegepant 10 mg Group, intranasal single dose, mITT subjects
[12] = Zavegepant 20 mg Group vs placebo, CMH weighting, mITT subjects
[13] = Zavegepant 20 mg Group vs placebo, CMH weighting
[14] = Zavegepant 20 mg Group vs placebo, CMH weighting, subjects with symptom present at onset

## Cc1cc(C[C@@H](NC(=O)N2CCC(c3cc4ccccc4[nH]c3=O)CC2)C(=O)N2CCN(C3CCN(C)CC3)CC2)cc2cn[nH]c12 [Zavegepant, (R)-N-(3-(7-methyl-1H-indazol-5-yl)-1-(4-(1-methylpiperidin-4-yl)piperazin-1-yl)-1-oxopropan-2-yl)-4-(2-oxo-1,2-dihydroquinolin-3-yl)piperidine-1-carboxamide]
[1]; 5 mg, Day 14, 0.500 h
  Plasma Concentrations (Mean): 8.08 ng/mL
[1]; in vivo, 5 mg
  AUC: 19 ng·h/mL
[1]; in vivo, 10 mg
  AUC: 30.9 ng·h/mL
[1]; in vivo, 20 mg
  AUC: 87.9 ng·h/mL
[1]; in vivo
  urine concentrations: below the limit of quantitation
[2]; 5 mg (N = 388)
  ALT or AST > 3x ULN (subjects): 0
  Bilirubin > 2x ULN (subjects): 0
[2]; 10 mg (N = 394)
  ALT or AST > 3x ULN (subjects): 0
  Bilirubin > 2x ULN (subjects): 0
[2]; 20 mg (N = 403)
  ALT or AST > 3x ULN (subjects): 0
  Bilirubin > 2x ULN (subjects): 0
[2]; All zavegepant (N = 1185)
  ALT or AST > 3x ULN (subjects): 0
  Bilirubin > 2x ULN (subjects): 0
[2]; any treatment arm
  hepatotoxicity signal (AST or ALT>3× ULN, total bilirubin>2× ULN): no signal of hepatoxicity
[2]; intranasal, single dose trial
  tolerability and safety: well tolerated and safe
[2]; single dose trial
  AEs mild in intensity: > 80%
[3]; at lower pH
  pH-solubility profile: > 300 mg/mL
[3]; pH = 8.2
  pH-solubility profile: 105 mg/mL
[4]
  pKa (second value): 8.8
[5]; 5 mg single dose
  Freedom from MBS (Most Bothersome Symptom), 2 Hour Endpoint: 39.0%
[5]; 15 mg (so in the source), Prophylactic migraine medication use: Yes
  Pain Relief at 15 Minutes Post-Dose, n/N (value in brackets): 13/50 (24.0)
[5]; 20 mg
  return to normal function: return to normal function as early as 30 minutes
[5]; 5, 10, and 20 mg single dose, stratified CMH tests, mITT
  onset of pain relief: pain relief as early as 15 minutes post-dose
[5]; 10 and 20 mg single dose
  co-primary endpoints of pain freedom and freedom from MBS at 2 hours versus placebo: statistically superior (p<0.05) to placebo
[5]; [6]
  (1) Pain relief at 2 hours postdose, Stratified Percentage Difference (Zavegepant − Placebo): 4.2%
  (3) Rescue medication use within 24 hours postdose, Stratified Percentage Difference (Zavegepant − Placebo): −2.4%
  (4) Photophobia freedom at 2 hours postdose, Stratified Percentage Difference (Zavegepant − Placebo): 4.6%
  (6) Pain relief at 60 minutes postdose, Stratified Percentage Difference (Zavegepant − Placebo): 5.1%
  (8) Pain relief at 30 minutes postdose, Stratified Percentage Difference (Zavegepant − Placebo): 1.9%
  (10) Sustained pain relief from 2 to 24 hours postdose, Stratified Percentage Difference (Zavegepant − Placebo): 8.0%
  (11) Sustained pain freedom from 2 to 24 hours postdose, Stratified Percentage Difference (Zavegepant − Placebo): 5.3%
  (12) Sustained pain relief from 2 to 48 hours postdose, Stratified Percentage Difference (Zavegepant − Placebo): 7.4%
  (13) Sustained pain freedom from 2 to 48 hours postdose, Stratified Percentage Difference (Zavegepant − Placebo): 5.5%
[5]; [7]
  (2) Return to normal function at 2 hours posidose, Stratified Percentage Difference (Zavegepant − Placebo): 4.3%
  (7) Return to normal function at 60 minutes postdose, Stratified Percentage Difference (Zavegepant − Placebo): 5.5%
  (9) Return to normal function at 30 minutes postdose, Stratified Percentage Difference (Zavegepant − Placebo): 3.4%
[5]; Zavegepant 5 mg Group vs placebo, CMH weighting, subjects with symptom present at onset
  (14) Nausca freedom at 2 hours postdose, Stratified Percentage Difference (Zavegepant − Placebo): 1.8%
[5]; [8]
  (4) Photophobia freedom at 2 hours postdose, n/N (%): 118/337 (35.0) %
  (6) Pain relief at 60 minutes postdose, n/N (%): 182/387 (47.0) %
[5]; Zavegepant 5 mg Group, intranasal single dose
  (9) Return to normal function at 30 minutes postdose, n/N (%): 32/363 (8.8) %
[5]; [9]
  (1) Pain relief at 2 hours postdose, Stratified Percentage Difference (Zavegepant − Placebo): 7.1%
  (3) Rescue medication use within 24 hours postdose, Stratified Percentage Difference (Zavegepant − Placebo): −1.1%
  (4) Photophobia freedom at 2 hours postdose, Stratified Percentage Difference (Zavegepant − Placebo): 5.1%
  (6) Pain relief at 60 minutes postdose, Stratified Percentage Difference (Zavegepant − Placebo): 4.2%
  (8) Pain relief at 30 minutes postdose, Stratified Percentage Difference (Zavegepant − Placebo): 5.3%
  (10) Sustained pain relief from 2 to 24 hours postdose, Stratified Percentage Difference (Zavegepant − Placebo): 6.8%
  (11) Sustained pain freedom from 2 to 24 hours postdose, Stratified Percentage Difference (Zavegepant − Placebo): 6.1%
  (12) Sustained pain relief from 2 to 48 hours postdose, Stratified Percentage Difference (Zavegepant − Placebo): 7.0%
  (13) Sustained pain freedom from 2 to 48 hours postdose, Stratified Percentage Difference (Zavegepant − Placebo): 6.3%
[5]; [10]
  (2) Return to normal function at 2 hours posidose, Stratified Percentage Difference (Zavegepant − Placebo): 7.1%
  (7) Return to normal function at 60 minutes postdose, Stratified Percentage Difference (Zavegepant − Placebo): 1.8%
  (9) Return to normal function at 30 minutes postdose, Stratified Percentage Difference (Zavegepant − Placebo): 2.1%
[5]; Zavegepant 10 mg Group vs placebo, CMH weighting, subjects with pain freedom at 2 hours postdose
  (15) Pain relapse from 2 to 48 hours postdose, Stratified Percentage Difference (Zavegepant − Placebo): −17.0%
[5]; Zavegepant 10 mg Group vs placebo, CMH weighting, subjects with symptom present at onset
  (14) Nausca freedom at 2 hours postdose, Stratified Percentage Difference (Zavegepant − Placebo): 2.9%
[5]; [11]
  (3) Rescue medication use within 24 hours postdose, n/N (%): 101/388 (26.0) %
  (6) Pain relief at 60 minutes postdose, n/N (%): 180/391 (46.0) %
[5]; Zavegepant 10 mg Group, intranasal single dose
  (9) Return to normal function at 30 minutes postdose, n/N (%): 27/354 (7.6) %
[5]; Zavegepant 10 mg Group, intranasal single dose, mITT subjects with pain freedom at 2 hours postdose
  (15) Pain relapse from 2 to 48 hours postdose, n/N (%): 29/88 (33.0) %
[5]; [12]
  (1) Pain relief at 2 hours postdose, Stratified Percentage Difference (Zavegepant − Placebo): 7.5%
  (3) Rescue medication use within 24 hours postdose, Stratified Percentage Difference (Zavegepant − Placebo): −7.1%
  (4) Photophobia freedom at 2 hours postdose, Stratified Percentage Difference (Zavegepant − Placebo): 7.4%
  (6) Pain relief at 60 minutes postdose, Stratified Percentage Difference (Zavegepant − Placebo): 7.8%
  (8) Pain relief at 30 minutes postdose, Stratified Percentage Difference (Zavegepant − Placebo): 1.9%
  (10) Sustained pain relief from 2 to 24 hours postdose, Stratified Percentage Difference (Zavegepant − Placebo): 8.9%
  (11) Sustained pain freedom from 2 to 24 hours postdose, Stratified Percentage Difference (Zavegepant − Placebo): 6.7%
  (12) Sustained pain relief from 2 to 48 hours postdose, Stratified Percentage Difference (Zavegepant − Placebo): 6.2%
  (13) Sustained pain freedom from 2 to 48 hours postdose, Stratified Percentage Difference (Zavegepant − Placebo): 5.7%
[5]; [13]
  (2) Return to normal function at 2 hours posidose, Stratified Percentage Difference (Zavegepant − Placebo): 7.3%
  (7) Return to normal function at 60 minutes postdose, Stratified Percentage Difference (Zavegepant − Placebo): 1.7%
  (9) Return to normal function at 30 minutes postdose, Stratified Percentage Difference (Zavegepant − Placebo): 4.5%
[5]; [14]
  (5) Phonophobia freedom at 2 hours postdose, Stratified Percentage Difference (Zavegepant − Placebo): 9.3%
  (14) Nausca freedom at 2 hours postdose, Stratified Percentage Difference (Zavegepant − Placebo): 3.7%
[5]; Zavegepant 20 mg Group, intranasal single dose
  (9) Return to normal function at 30 minutes postdose, n/N (%): 37/372 (9.9) %
[5]; nominal p<0.05
  secondary endpoints demonstrating early activity versus placebo: superior to placebo on multiple secondary endpoints
[5]; nominal p<0.05, 5, 10 and 20 mg (pain relief 2 to 48 h: 5 and 10 mg)
  durability of benefits (sustained pain freedom and pain relief 2 to 24 and 2 to 48 hours): durable and sustained without rescue medication out to 48 hours
